Results as given in the CheMixHub viscosity set.
± gives the uncertainty stated by the source.

Experiment: xn = mol fraction of the nth substance listed

C=C(C)C(=O)OC + CO
viscosity [mPa·s], 101 kPa
Settings	x2 = 0.1152	x2 = 0.2092	x2 = 0.3024	x2 = 0.4008	x2 = 0.5011	x2 = 0.6041	x2 = 0.7013	x2 = 0.8003	x2 = 0.9033
293.15 K	0.5752 ± 0.0047	0.5665 ± 0.0045	0.5622 ± 0.0043	0.5592 ± 0.0042	0.5546 ± 0.0041	0.5576 ± 0.004	0.5612 ± 0.0039	0.5709 ± 0.0039	0.5792 ± 0.0039
298.15 K	0.5416 ± 0.0044	0.5329 ± 0.0042	0.5294 ± 0.0041	0.5266 ± 0.004	0.5222 ± 0.0039	0.5232 ± 0.0038	0.5269 ± 0.0038	0.5357 ± 0.0037	0.5425 ± 0.0037
303.15 K	0.5126 ± 0.0042	0.5046 ± 0.0041	0.5012 ± 0.0039	0.4973 ± 0.0038	0.4928 ± 0.0037	0.4944 ± 0.0036	0.4965 ± 0.0036	0.5036 ± 0.0036	0.5088 ± 0.0036
308.15 K	0.4841 ± 0.004	0.4783 ± 0.0039	0.4739 ± 0.0038	0.4705 ± 0.0036	0.4665 ± 0.0035	0.4673 ± 0.0035	0.4689 ± 0.0034	0.4748 ± 0.0034	0.4792 ± 0.0034
313.15 K	0.4611 ± 0.0039	0.4552 ± 0.0037	0.4511 ± 0.0036	0.4474 ± 0.0035	0.4428 ± 0.0034	0.4435 ± 0.0033	0.4441 ± 0.0033	0.4493 ± 0.0033	0.4529 ± 0.0033
318.15 K	0.4391 ± 0.0037	0.4335 ± 0.0036	0.4297 ± 0.0035	0.4261 ± 0.0034	0.4212 ± 0.0033	0.4228 ± 0.0032	0.4243 ± 0.0032	0.4259 ± 0.0031	0.4285 ± 0.0031
323.15 K	0.4195 ± 0.0036	0.4138 ± 0.0035	0.4101 ± 0.0033	0.4063 ± 0.0032	0.4022 ± 0.0032	0.4031 ± 0.0031	0.4043 ± 0.0031	0.4057 ± 0.003	0.4065 ± 0.003

[Sn] + [Ga]
323 K, 100 kPa
Settings	viscosity [mPa·s]
x1 = 0.085	1.693 ± 0.09
x1 = 0.164	2.223 ± 0.098
x1 = 0.37	3.637 ± 0.12
x1 = 0.638	5.381 ± 0.16
x1 = 0.841	6.576 ± 0.19

C=C(C)C(=O)OC + ClC(Cl)Cl
303.15 K, 101 kPa
Settings	viscosity [mPa·s]
x1 = 0.0522	0.5364 ± 0.0059
x1 = 0.1301	0.5505 ± 0.0059
x1 = 0.3102	0.5767 ± 0.0061
x1 = 0.4132	0.5808 ± 0.0061
x1 = 0.5161	0.5747 ± 0.0061
x1 = 0.7435	0.5589 ± 0.006
x1 = 0.8591	0.542 ± 0.0059

C=C(C)C(=O)OC + CCC(C)O
viscosity [mPa·s], 101.3 kPa
Settings	298.15 K	308.15 K
x1 = 0.0597	2.462 ± 0.015	2.057 ± 0.013
x1 = 0.1551	1.779 ± 0.011	1.481 ± 0.009
x1 = 0.255	1.32 ± 0.008	1.097 ± 0.007
x1 = 0.3562	1.022 ± 0.007	0.848 ± 0.006
x1 = 0.4561	0.83 ± 0.005	0.688 ± 0.005
x1 = 0.5021	0.766 ± 0.005	0.635 ± 0.005
x1 = 0.5571	0.704 ± 0.005	0.584 ± 0.004
x1 = 0.6562	0.626 ± 0.004	0.52 ± 0.004
x1 = 0.7557	0.581 ± 0.004	0.484 ± 0.004
x1 = 0.8552	0.564 ± 0.004	0.472 ± 0.004
x1 = 0.9549	0.572 ± 0.004	0.481 ± 0.004

CCCC[n+]1ccn(C)c1.O=C([O-])C(F)(F)F + ClC(Cl)Cl
Settings	viscosity [mPa·s]
298.15 K, 101 kPa, x2 = 0.6467	9.74 ± 1.1

C=C(C)C(=O)OC + CC(C)O
viscosity [mPa·s], 101.3 kPa
Settings	298.15 K	308.15 K
x1 = 0.0556	1.716 ± 0.011	1.339 ± 0.008
x1 = 0.1557	1.314 ± 0.008	1.051 ± 0.007
x1 = 0.2605	1.034 ± 0.007	0.845 ± 0.006
x1 = 0.3541	0.862 ± 0.006	0.717 ± 0.005
x1 = 0.4318	0.76 ± 0.005	0.638 ± 0.004
x1 = 0.5041	0.689 ± 0.005	0.583 ± 0.004
x1 = 0.5537	0.651 ± 0.005	0.553 ± 0.004
x1 = 0.6557	0.596 ± 0.004	0.509 ± 0.004
x1 = 0.7561	0.567 ± 0.004	0.484 ± 0.004
x1 = 0.8542	0.559 ± 0.004	0.477 ± 0.004
x1 = 0.9512	0.571 ± 0.004	0.483 ± 0.004

C=C(C)C(=O)OC + CC(C)OC(C)C
viscosity [mPa·s], 101.3 kPa
Settings	298.15 K	308.15 K
x1 = 0.0416	0.385 ± 0.003	0.291 ± 0.003
x1 = 0.1479	0.401 ± 0.004	0.309 ± 0.003
x1 = 0.2488	0.417 ± 0.004	0.326 ± 0.003
x1 = 0.3488	0.434 ± 0.004	0.344 ± 0.003
x1 = 0.4527	0.453 ± 0.004	0.364 ± 0.003
x1 = 0.4958	0.461 ± 0.004	0.372 ± 0.003
x1 = 0.5472	0.472 ± 0.004	0.383 ± 0.003
x1 = 0.6489	0.493 ± 0.004	0.404 ± 0.004
x1 = 0.7504	0.517 ± 0.004	0.427 ± 0.004
x1 = 0.8502	0.542 ± 0.004	0.451 ± 0.004
x1 = 0.944	0.569 ± 0.004	0.474 ± 0.004

[I-].[Na+] + O
310.15 K, 101 kPa
Settings	viscosity [mPa·s]
x1 = 0.000186	0.7003 ± 0.0061
x1 = 0.000929	0.6978 ± 0.0062
x1 = 0.001834	0.6993 ± 0.0062
x1 = 0.002695	0.7053 ± 0.0063
x1 = 0.003679	0.7179 ± 0.0064
x1 = 0.005197	0.749 ± 0.0067
x1 = 0.005988	0.7709 ± 0.0069

CCCCCCCCCCCC(=O)[O-].[Na+] + CCCCCCCCCC(=O)O
101 kPa, x1 = 0.2
Settings	viscosity [mPa·s]
293.15 K	76.59 ± 1.1
298.15 K	60.48 ± 0.83
303.15 K	48.43 ± 0.67
308.15 K	39.29 ± 0.54
313.15 K	32.27 ± 0.45
318.15 K	26.79 ± 0.37
323.15 K	22.48 ± 0.31

ClCCCCCCCl + Cc1ccccc1
viscosity [mPa·s], 101 kPa
Settings	x1 = 0.07864	x1 = 0.1578	x1 = 0.2467	x1 = 0.3346	x1 = 0.4309	x1 = 0.533	x1 = 0.6475	x1 = 0.755	x1 = 0.8707
308.15 K	0.536 ± 0.011	0.604 ± 0.013	0.676 ± 0.014	0.764 ± 0.016	0.868 ± 0.018	0.978 ± 0.021	1.121 ± 0.024	1.267 ± 0.027	1.44 ± 0.031
313.15 K	0.514 ± 0.011	0.57 ± 0.012	0.639 ± 0.013	0.712 ± 0.015	0.807 ± 0.017	0.911 ± 0.019	1.043 ± 0.022	1.175 ± 0.025	1.345 ± 0.029
318.15 K	0.49 ± 0.01	0.543 ± 0.011	0.605 ± 0.013	0.682 ± 0.014	0.769 ± 0.016	0.865 ± 0.018	0.983 ± 0.021	1.095 ± 0.023	1.228 ± 0.026

ClCCCCCCCl + C1CCCCC1
viscosity [mPa·s], 101 kPa
Settings	x1 = 0.07055	x1 = 0.1468	x1 = 0.2554	x1 = 0.3491	x1 = 0.4438	x1 = 0.5446	x1 = 0.6382	x1 = 0.7449	x1 = 0.8743
308.15 K	0.796 ± 0.017	0.835 ± 0.018	0.893 ± 0.019	0.948 ± 0.02	1.022 ± 0.022	1.113 ± 0.024	1.206 ± 0.026	1.322 ± 0.028	1.467 ± 0.031
313.15 K	0.721 ± 0.015	0.759 ± 0.016	0.818 ± 0.017	0.873 ± 0.018	0.947 ± 0.02	1.036 ± 0.022	1.126 ± 0.024	1.246 ± 0.026	1.387 ± 0.029
318.15 K	0.681 ± 0.014	0.711 ± 0.015	0.76 ± 0.016	0.804 ± 0.017	0.865 ± 0.018	0.942 ± 0.02	1.027 ± 0.022	1.133 ± 0.024	1.259 ± 0.027
